Results as given in PubChem BioAssay (NCI).
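Growth conditions: 96-well plates. Treatment: test compound, 48 hours, 5 concentrations. Analysis: linear interpolation between bracketing concentrations; unreached endpoints set to highest concentration. GI50 is the concentration that inhibits growth by half. At the TGI there is no net growth.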

How the values were obtained:
Experiment in all cases: growth of human tumour cells (NCI), 48 h
A498 renal = system: A498 renal
CAKI-1 renal = system: CAKI-1 renal
HCT-15 colon = system: HCT-15 colon
OVCAR-4 ovarian = system: OVCAR-4 ovarian
OVCAR-8 ovarian = system: OVCAR-8 ovarian
SNB-75 CNS = system: SNB-75 CNS
UACC-62 melanoma = system: UACC-62 melanoma
HT29 colon = system: HT29 colon
KM12 colon = system: KM12 colon
U251 CNS = system: U251 CNS

| Structure (SMILES) | TGI (A498 renal) | TGI (CAKI-1 renal) | TGI (HCT-15 colon) | TGI (OVCAR-4 ovarian) | TGI (OVCAR-8 ovarian) | TGI (SNB-75 CNS) | TGI (UACC-62 melanoma) | GI50 (A498 renal) | GI50 (CAKI-1 renal) | GI50 (HCT-15 colon) | GI50 (HT29 colon) | TGI (HT29 colon) | GI50 (KM12 colon) | TGI (KM12 colon) | GI50 (OVCAR-4 ovarian) | GI50 (OVCAR-8 ovarian) | GI50 (U251 CNS) | TGI (U251 CNS) | GI50 (UACC-62 melanoma) | GI50 (SNB-75 CNS) |
| --- | --- | --- | --- | --- | --- | --- | --- | --- | --- | --- | --- | --- | --- | --- | --- | --- | --- | --- | --- | --- |
| CCCCCCCCCCCCCCCCCCNC(=O)OCC(CNS(=O)(=O)CCC[n+]1cccc2ccccc21)COC (centres undefined) | 64.9 µM | 51.3 µM | 59.2 µM | 7.01 µM | > 26.1 µM | 6.84 µM | 8.21 µM | – | – | – | – | – | – | – | – | – | – | – | – | – |
| CSc1nsc(S/C=C\C(=O)c2ccc(C)cc2)n1 | 0.169 µM | 51.5 µM | 25.3 µM | > 58.9 µM | 57.5 µM | – | 38.2 µM | 0.0153 µM | 21.8 µM | 11.9 µM | 19 µM | > 57.1 µM | 28 µM | > 64.7 µM | 20.8 µM | 22.5 µM | 17.2 µM | 41.5 µM | 18.5 µM | – |
| CCOC(=O)C1=C(Nc2ccc(Cl)c(Cl)c2)OC/C1=N\NC(=O)Cc1ccccc1 | > 100 µM | > 100 µM | – | > 100 µM | > 100 µM | > 100 µM | > 100 µM | – | – | – | – | – | – | > 100 µM | – | – | – | > 100 µM | – | – |
| CC1(C)C=[N+]([O-])C(C)(C)N1O | – | > 10 µM | > 10 µM | > 10 µM | > 10 µM | – | – | – | – | – | – | > 10 µM | – | > 10 µM | – | – | – | > 10 µM | – | – |
| CN1c2ccccc2S(=O)(=O)n2c(CCc3ccccc3)nnc21 | > 100 µM | > 100 µM | > 100 µM | > 100 µM | > 100 µM | – | > 100 µM | – | – | – | – | > 100 µM | – | > 100 µM | – | – | – | > 100 µM | – | – |
| C[C@]12CC[C@H]3[C@@H](CC[C@]4(O)C[C@@H](O)CC[C@]34CO)[C@@]1(O)CC[C@@H]2C1=CC(=O)OC1 | 5.1 µM | – | 4.72 µM | – | 3.82 µM | 34.3 µM | 11.4 µM | – | – | – | – | 7.81 µM | – | 17 µM | – | – | – | – | – | – |
| CCCCCCCCCCCCCC(=O)NCC(OCC)OCC | > 100 µM | – | > 100 µM | > 100 µM | > 100 µM | > 100 µM | > 100 µM | – | – | – | – | > 100 µM | – | > 100 µM | – | – | – | > 100 µM | – | – |
| Cc1cccc(N=C2NC(=O)C(CC(=O)Nc3ccc(C)cc3C)S2)c1 (centres undefined) | > 100 µM | > 100 µM | > 100 µM | > 100 µM | > 100 µM | > 100 µM | > 100 µM | – | – | – | – | > 100 µM | – | – | – | – | – | > 100 µM | – | – |
| NNS(=O)(=O)c1cc(C(=O)O)cc(C(=O)O)c1 | > 100 µM | > 100 µM | > 100 µM | > 100 µM | > 100 µM | – | > 100 µM | – | – | – | – | > 100 µM | – | > 100 µM | – | – | – | > 100 µM | – | – |
| O=c1cc(-c2ccccn2)[nH]c2cc(F)ccc12 | – | – | – | > 100 µM | > 100 µM | > 100 µM | > 100 µM | – | – | – | – | > 100 µM | – | > 100 µM | – | – | – | – | – | – |
| CC[C@H](Nc1nc(N)nc(C2CC2)c1C#N)c1nc2cccc(NCc3ccc(C(=O)NO)cc3)c2c(=O)n1-c1ccccc1 | 3.69 µM | 3.38 µM | 6.96 µM | > 100 µM | – | 5.43 µM | – | 1.7 µM | 1.5 µM | 2.05 µM | – | – | 2.07 µM | 4.69 µM | 2.6 µM | – | – | – | – | 1.57 µM |
| N#Cc1c(C[n+]2ccccc2)c2ccccc2oc1=O | – | > 100 µM | > 100 µM | > 100 µM | > 100 µM | > 100 µM | > 100 µM | – | – | – | – | > 100 µM | – | > 100 µM | – | – | – | > 100 µM | – | – |
| COc1nc(C)cc2c(=O)n(-c3ccccc3)n(CC(O)CN3CCN(c4ccc(Cl)cc4)CC3)c(=O)c12 (centres undefined) | > 50 µM | > 50 µM | > 50 µM | > 50 µM | – | 27.8 µM | > 50 µM | > 50 µM | > 50 µM | > 50 µM | > 50 µM | > 50 µM | > 50 µM | > 50 µM | 36.8 µM | – | 30.6 µM | > 50 µM | 46.6 µM | 10.1 µM |
| COc1ccccc1NC(=O)C1=C(C)NC(C)=C(C(=O)Nc2ccccc2OC)C1c1ccc(N(C)C)cc1 | > 100 µM | 89.1 µM | – | 91.2 µM | 77.3 µM | 80.6 µM | – | – | – | – | – | > 100 µM | – | 56.9 µM | – | – | – | > 100 µM | – | – |
| COC(=O)[C@H]1[C@H]2C[C@@H]3c4[nH]c5cc(OC)ccc5c4CCN3C[C@H]2C[C@@H](OC(=O)/C=C/c2cc(OC)c(OC)c(OC)c2)[C@@H]1OC | 18.6 µM | 26.8 µM | > 100 µM | 11.2 µM | 50.4 µM | 20.2 µM | 33.4 µM | 4.23 µM | 3.97 µM | 4.32 µM | – | – | 4.44 µM | 28.5 µM | 3.39 µM | 4.74 µM | 3.58 µM | 14.6 µM | 14.5 µM | 5.19 µM |
